From US10428083B2, “Heterocyclylmethyl-thienouracile as antagonists of the adenosine-A2B-receptor” (BAYER PHARMA AKTIENGESELLSCHAFT, priority 2015, dated 2019) come the findings set out here.

By IC50 is commonly meant the point on the concentration scale where inhibition reaches its midpoint.

human adenosine A2b receptor, sequence (P29275 whole entry): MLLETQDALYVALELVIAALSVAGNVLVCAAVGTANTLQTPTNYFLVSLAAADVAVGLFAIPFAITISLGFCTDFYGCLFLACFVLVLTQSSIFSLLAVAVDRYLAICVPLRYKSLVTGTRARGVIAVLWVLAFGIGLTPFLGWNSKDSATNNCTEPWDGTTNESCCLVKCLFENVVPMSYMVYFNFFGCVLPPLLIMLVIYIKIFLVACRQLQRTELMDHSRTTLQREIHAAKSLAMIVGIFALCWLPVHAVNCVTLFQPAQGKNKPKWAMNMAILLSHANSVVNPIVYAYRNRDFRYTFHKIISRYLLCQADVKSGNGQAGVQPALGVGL

This test addresses human adenosine A2b receptor (Homo sapiens (Human), UniProt P29275). The experiment in a line: Cellular in vitro reporter gene test for A2b receptor activity (CHO-K1, CRE-luciferase, NECA stimulation). Type of test: cell-based. The conditions noted are these: recombinant CHO-K1 cell line, CRE-luciferase reporter, antagonism of EC50 concentration of NECA; in some cases means of several determinations, rounded to two significant figures; read-out: A2b receptor IC50. Put shortly: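 CHO-K1 cells with CRE-driven luciferase; antagonists co-incubated with NECA at its EC50, determined in a pre-experiment on each test day. Luciferase read by luminescence 3 h after NECA addition.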
For orientation: A reporter such as luciferase makes a cellular process visible.
For the molecule `COCCn1c(=O)n(CCc2ccccc2)c(=O)c2c(C(F)(F)F)c(CN3CCN(C)C3=O)sc21` [Example 105, 1-(2-Methoxyethyl)-6-[(3-methyl-2-oxoimidazolidin-1-yl)methyl]-3-(2-phenylethyl)-5-(trifluoromethyl)thieno[2,3-d]pyrimidine-2,4(1H,3H)-dione], the IC50 was found to be 0.014 µM. As to `COCCn1c(=O)c2c(C)c(CN3CCNC3=NC(=O)OC)sc2n(CC2CCCO2)c1=O` (single isomer, unassigned) [Example 392, Methyl [1-f{[3-(2-methoxyethyl)-5-methyl-2,4-dioxo-1-(tetrahydrofuran-2-ylmethyl)-1,2,3,4-tetrahydrothieno[2,3-d]pyrimidin-6-yl]methyl}imidazolidin-2-ylidene]carbamate], the IC50 came out at 0.056 µM.

Turning to `COCCn1c(=O)n(CC(C)(C)F)c(=O)c2c(C)c(CN3CCNC3=O)sc21` [Example 226, 3-(2-Fluoro-2-methylpropyl)-1-(2-methoxyethyl)-5-methyl-6-[(2-oxoimidazolidin-1-yl)methyl]thieno[2,3-d]pyrimidine-2,4(1H,3H)-dione], the IC50 was determined as 0.036 µM. As to `CCn1c(=O)c2c(C(F)F)c(CN3CCNC3=S)sc2n(CCC(F)(F)F)c1=O` [Example 44, 5-(Difluoromethyl)-3-ethyl-6-[(2-thioxoimidazolidin-1-yl)methyl]-1-(3,3,3-trifluoropropyl)thieno[2,3-d]pyrimidine-2,4(1H,3H)-dione], the concentration for half-maximal inhibition (IC50) was 0.0052 µM. In the case of `CCn1c(=O)c2c(C)c(CN3CCNC3=S)sc2n(CCS(C)(=O)=O)c1=O` [Example 295, 3-Ethyl-5-methyl-1-[2-(methylsulphonyl)ethyl]-6-[(2-thioxoimidazolidin-1-yl)methyl]thieno[2,3-d]pyrimidine-2,4(1H,3H)-dione], the IC50 turned out to be 0.22 µM.

As for `Cc1c(Cn2[nH]ccc2=O)sc2c1c(=O)n(CC(F)(F)F)c(=O)n2CC1CCCO1` (single isomer, unassigned) [Example 286, 5-Methyl-6-[(5-oxo-2,5-dihydro-1H-pyrazol-1-yl)methyl]-1-(tetrahydrofuran-2-ylmethyl)-3-(2,2,2-trifluoroethyl)thieno[2,3-d]pyrimidine-2,4(1H,3H)-dione], the 50% inhibitory concentration (IC50) came out at 0.22 µM. Regarding `CCn1c(=O)c2c(C)c(CN3CCNC3=O)sc2n(CC2CCCCO2)c1=O` (single isomer, unassigned) [Example 180, 3-Ethyl-5-methyl-6-[(2-oxoimidazolidin-1-yl)methyl]-1-(tetrahydro-2H-pyran-2-ylmethyl)thieno[2,3-d]pyrimidine-2,4(1H,3H)-dione], the 50% inhibitory concentration (IC50) was 0.03 µM.

`CCn1c(=O)c2c(C)c(CN3CCNC3=S)sc2n(CCOC2CCCC2)c1=O` [Example 293, 1-[2-(Cyclopentyloxy)ethyl]-3-ethyl-5-methyl-6-[(2-thioxoimidazolidin-1-yl)methyl]thieno[2,3-d]pyrimidine-2,4(1H,3H)-dione]: the 50% inhibitory concentration (IC50) came out at 0.12 µM. `Cc1c(CN2CCNC2=NC#N)sc2c1c(=O)n(C(C)C)c(=O)n2CC1CCCO1` (single isomer, unassigned) [Example 356, [1-{[3-Isopropyl-5-methyl-2,4-dioxo-1-(tetrahydrofuran-2-ylmethyl)-1,2,3,4-tetrahydrothieno[2,3-d]pyrimidin-6-yl]methyl}imidazolidin-2-ylidene]cyanamide]: the IC50 amounted to 0.0051 µM. With `C=CCn1cnn(Cc2sc3c(c2C)c(=O)n(CC)c(=O)n3CCOC(F)(F)F)c1=O` [Example 111, 6-[(4-Allyl-5-oxo-4,5-dihydro-1H-1,2,4-triazol-1-yl)methyl]-3-ethyl-5-methyl-1-[2-(trifluoromethoxy)ethyl]thieno[2,3-d]pyrimidine-2,4(1H,3H)-dione] the figure was 0.021 µM; with `COCCn1c(=O)c2c(C)c(CN3CCNC3=NC#N)sc2n(CCC(F)(F)F)c1=O` [Example 362, [1-{[3-(2-Methoxyethyl)-5-methyl-2,4-dioxo-1-(3,3,3-trifluoropropyl)-1,2,3,4-tetrahydrothieno[2,3-d]pyrimidin-6-yl]methyl}imidazolidin-2-ylidene]cyanamide], 0.0094 µM.

For `CCn1c(=O)c2c(C)c(CN3CCNC3=NC(=O)OC)sc2n(CCOC)c1=O` (single isomer, unassigned) [Example 119, Methyl [1-{[3-ethyl-1-(2-methoxyethyl)-5-methyl-2,4-dioxo-1,2,3,4-tetrahydrothieno[2,3-d]pyrimidin-6-yl]methyl}imidazolidin-2-ylidene]carbamate], the half-inhibitory concentration (IC50) turned out to be 0.0027 µM. On to `CCn1c(=O)c2c(C)c(Cn3nc[nH]c3=O)sc2n(CF)c1=O` [Example 352, 3-Ethyl-1-(fluoromethyl)-5-methyl-6-[(5-oxo-4,5-dihydro-1H-1,2,4-triazol-1-yl)methyl]thieno[2,3-d]pyrimidine-2,4(1H,3H)-dione], for which the concentration for half-maximal inhibition (IC50) worked out at 0.048 µM. As for `Cc1c(CN2CCNC2=S)sc2c1c(=O)n(CC(F)(F)F)c(=O)n2CC1CCO1` (single isomer, unassigned) [Example 156, 5-Methyl-1-(oxetan-2-ylmethyl)-6-[(2-thioxoimidazolidin-1-yl)methyl]-3-(2,2,2-trifluoroethyl)thieno[2,3-d]pyrimidine-2,4(1H,3H)-dione], the concentration for half-maximal inhibition (IC50) came out at 0.0057 µM. In the case of `Cc1c(Cn2nc[nH]c2=O)sc2c1c(=O)n(C(C)C(F)(F)F)c(=O)n2CCC(F)(F)F` (racemic) [Example 437, 5-Methyl-6-[(5-oxo-4,5-dihydro-1H-1,2,4-triazol-1-yl)methyl]-3-(1,1,1-trifluoropropan-2-yl)-1-(3,3,3-trifluoropropyl)thieno[2,3-d]pyrimidine-2,4(1H,3H)-dione] it was 0.048 µM. Regarding `Cc1c(Cn2nc[nH]c2=O)sc2c1c(=O)n(CC(F)(F)F)c(=O)n2CC1CCCO1` (single isomer, unassigned) [Example 436, 5-Methyl-6-[(5-oxo-4,5-dihydro-1H-1,2,4-triazol-1-yl)methyl]-1-(tetrahydrofuran-2-ylmethyl)-3-(2,2,2-trifluoroethyl)thieno[2,3-d]pyrimidine-2,4(1H,3H)-dione], the concentration for half-maximal inhibition (IC50) amounted to 0.065 µM.

For the molecule `CCOCCn1c(=O)n(CC)c(=O)c2c(C)c(CN3CCNC3=S)sc21` [Example 32, 1-(2-Ethoxyethyl)-3-ethyl-5-methyl-6-[(2-thioxoimidazolidin-1-yl)methyl]thieno[2,3-d]pyrimidine-2,4(1H,3H)-dione], the IC50 worked out at 0.011 µM. Take `COCCn1c(=O)n(CCC(F)(F)F)c(=O)c2c(C)c(CN3CCNC3=O)sc21` [Example 98, 1-(2-Methoxyethyl)-5-methyl-6-[(2-oxoimidazolidin-1-yl)methyl]-3-(3,3,3-trifluoropropyl)thieno[2,3-d]pyrimidine-2,4(1H,3H)-dione]: the 50% inhibitory concentration (IC50) was 0.13 µM.

On to `COC(=O)N=C1NCCN1Cc1sc2c(c1C)c(=O)n(CC(F)(F)F)c(=O)n2CCC(F)(F)F` [Example 381, Methyl [1-{[5-methyl-2,4-dioxo-3-(2,2,2-trifluoroethyl)-1-(3,3,3-trifluoropropyl)-1,2,3,4-tetrahydrothieno[2,3-d]pyrimidin-6-yl]methyl}imidazolidin-2-ylidene]carbamate], for which the IC50 was 0.0041 µM.

With `CCn1c(=O)c2c(C)c(CN3CCNC3=O)sc2n(CCN(C)C)c1=O` [Example 83, 1-[2-(Dimethylamino)ethyl]-3-ethyl-5-methyl-6-[(2-oxoimidazolidin-1-yl)methyl]thieno[2,3-d]pyrimidine-2,4(1H,3H)-dione], the IC50 came out at 0.38 µM.

In the case of `Cc1c(CN2CCNC2=O)sc2c1c(=O)n(CC(C)C)c(=O)n2CCC(F)(F)F` [Example 87, 3-Isobutyl-5-methyl-6-[(2-oxoimidazolidin-1-yl)methyl]-1-(3,3,3-trifluoropropyl)thieno[2,3-d]pyrimidine-2,4(1H,3H)-dione], the IC50 is 0.0023 µM. Regarding `Cc1c(CN2CCNC2=O)sc2c1c(=O)n(CC(C)C)c(=O)n2CCCF` [Example 192, 1-(3-Fluoropropyl)-3-isobutyl-5-methyl-6-[(2-oxoimidazolidin-1-yl)methyl]thieno[2,3-d]pyrimidine-2,4(1H,3H)-dione], the IC50 was 0.0032 µM.

As to `COCCn1c(=O)n(CC2CC2)c(=O)c2c(C)c(CN3CCNC3=O)sc21` [Example 92], the 50% inhibitory concentration (IC50) worked out at 0.0097 µM. For the molecule `COCCn1c(=O)n(CCc2ccccc2)c(=O)c2c(C)c(CN3CCC3=O)sc21` [Example 1, 1-(2-Methoxyethyl)-5-methyl-6-[(2-oxoazetidin-1-yl)methyl]-3-(2-phenylethyl)thieno[2,3-d]pyrimidine-2,4(1H,3H)-dione], the half-inhibitory concentration (IC50) came out at 0.0097 µM. `CCn1c(=O)c2c(C)c(Cn3[nH]ccc3=O)sc2n(CC2CCCO2)c1=O` (single isomer, unassigned) [Example 130, 3-Ethyl-5-methyl-6-[(5-oxo-2,5-dihydro-1H-pyrazol-1-yl)methyl]-1-(tetrahydrofuran-2-ylmethyl)thieno[2,3-d]pyrimidine-2,4(1H,3H)-dione]: the IC50 is 0.03 µM.

For `CCCn1cnn(Cc2sc3c(c2C)c(=O)n(CC)c(=O)n3CCC(F)(F)F)c1=O` [Example 355, 3-Ethyl-5-methyl-6-[(5-oxo-4-propyl-4,5-dihydro-1H-H-1,2,4-triazol-1-yl)methyl]-1-(3,3,3-trifluoropropyl)thieno[2,3-d]pyrimidine-2,4(1H,3H)-dione], the IC50 amounted to 0.099 µM. With `COCCn1c(=O)c2c(C)c(Cn3[nH]ccc3=O)sc2n(CC2CCCO2)c1=O` (racemic) [Example 289, 3-(2-Methoxyethyl)-5-methyl-6-[(5-oxo-2,5-dihydro-1H-pyrazol-1-yl)methyl]-1-(tetrahydrofuran-2-ylmethyl)thieno[2,3-d]pyrimidine-2,4(1H,3H)-dione], the IC50 came to 0.18 µM. Turning to `Cc1c(CN2CCNC2=S)sc2c1c(=O)n(CC(C)(C)C)c(=O)n2CCC(F)(F)F` [Example 149, 3-(2,2-Dimethylpropyl)-5-methyl-6-[(2-thioxoimidazolidin-1-yl)methyl]-1-(3,3,3-trifluoropropyl)thieno[2,3-d]pyrimidine-2,4(1H,3H)-dione], the IC50 came to 0.0051 µM.
